Reference: BindingDB's records for doi:10.1021/jm00091a006 (University of Arizona, 1992)

Assay: Compound was evaluated for its inhibitory potency against Opioid receptor delta 1 of Guinea pig ileum

Row | SMILES | IC50 [µM]
1 | Cc1cc(O)ccc1C[C@@H](N)C(=O)N[C@H]1C(=O)NCC(=O)N[C@@H](Cc2ccccc2)C(=O)N[C@@H](C(=O)O)C(C)(C)SSC1(C)C | 6.61
2 | C[C@@H](c1ccc(O)cc1)[C@H](N)C(=O)N[C@H]1C(=O)NCC(=O)N[C@@H](Cc2ccccc2)C(=O)N[C@@H](C(=O)O)C(C)(C)SSC1(C)C | 7.18
3 | C[C@H](c1ccc(O)cc1)[C@H](N)C(=O)N[C@H]1C(=O)NCC(=O)N[C@@H](Cc2ccccc2)C(=O)N[C@@H](C(=O)O)C(C)(C)SSC1(C)C | 3.4
4 | C[C@H](c1ccc(O)cc1)[C@@H](N)C(=O)N[C@H]1C(=O)NCC(=O)N[C@@H](Cc2ccccc2)C(=O)N[C@@H](C(=O)O)C(C)(C)SSC1(C)C | > 100
